Assay results from ChEMBL document CHEMBL5625183, “Discovery of a novel dual-target inhibitor of CDK12 and PARP1 that induces synthetic lethality for treatment of triple-negative breast cancer” (Eur J Med Chem, 2023).
pIC50: −log10 of the molar value. Values joined by “and” are separate entries in the source; they are usually repeats but may differ in a detail not shown here. Equal entries are not always repeated. Active and inactive are the calls of the source. No cut-off for these calls is given here.

What was measured:
MDA-MB-231 [1] = test: Antiproliferative activity against human MDA-MB-231 cells assessed as inhibition of cell growth incubated for 24 hrs by MTT assay; type: functional, cell-based; settings: MDA-MB-231, 24 h
MDA-MB-468 [2] = test: Antiproliferative activity against human MDA-MB-468 cells assessed as inhibition of cell growth incubated for 24 hrs by MTT assay; type: functional, cell-based; settings: MDA-MB-468, 24 h
MDA-MB-436 [3] = test: Antiproliferative activity against human MDA-MB-436 cells assessed as inhibition of cell growth incubated for 24 hrs by MTT assay; type: functional, cell-based
[4] = target: T1, Cyclin-dependent kinase 12 (Homo sapiens, UniProt Q9NYV4); test: Inhibition of CDK12 (unknown origin) at 1 uM in presence of ATP by kinase-glo plus luminescent assay relative to control
Target sequence in this assay (Q9NYV4 whole entry, looked up): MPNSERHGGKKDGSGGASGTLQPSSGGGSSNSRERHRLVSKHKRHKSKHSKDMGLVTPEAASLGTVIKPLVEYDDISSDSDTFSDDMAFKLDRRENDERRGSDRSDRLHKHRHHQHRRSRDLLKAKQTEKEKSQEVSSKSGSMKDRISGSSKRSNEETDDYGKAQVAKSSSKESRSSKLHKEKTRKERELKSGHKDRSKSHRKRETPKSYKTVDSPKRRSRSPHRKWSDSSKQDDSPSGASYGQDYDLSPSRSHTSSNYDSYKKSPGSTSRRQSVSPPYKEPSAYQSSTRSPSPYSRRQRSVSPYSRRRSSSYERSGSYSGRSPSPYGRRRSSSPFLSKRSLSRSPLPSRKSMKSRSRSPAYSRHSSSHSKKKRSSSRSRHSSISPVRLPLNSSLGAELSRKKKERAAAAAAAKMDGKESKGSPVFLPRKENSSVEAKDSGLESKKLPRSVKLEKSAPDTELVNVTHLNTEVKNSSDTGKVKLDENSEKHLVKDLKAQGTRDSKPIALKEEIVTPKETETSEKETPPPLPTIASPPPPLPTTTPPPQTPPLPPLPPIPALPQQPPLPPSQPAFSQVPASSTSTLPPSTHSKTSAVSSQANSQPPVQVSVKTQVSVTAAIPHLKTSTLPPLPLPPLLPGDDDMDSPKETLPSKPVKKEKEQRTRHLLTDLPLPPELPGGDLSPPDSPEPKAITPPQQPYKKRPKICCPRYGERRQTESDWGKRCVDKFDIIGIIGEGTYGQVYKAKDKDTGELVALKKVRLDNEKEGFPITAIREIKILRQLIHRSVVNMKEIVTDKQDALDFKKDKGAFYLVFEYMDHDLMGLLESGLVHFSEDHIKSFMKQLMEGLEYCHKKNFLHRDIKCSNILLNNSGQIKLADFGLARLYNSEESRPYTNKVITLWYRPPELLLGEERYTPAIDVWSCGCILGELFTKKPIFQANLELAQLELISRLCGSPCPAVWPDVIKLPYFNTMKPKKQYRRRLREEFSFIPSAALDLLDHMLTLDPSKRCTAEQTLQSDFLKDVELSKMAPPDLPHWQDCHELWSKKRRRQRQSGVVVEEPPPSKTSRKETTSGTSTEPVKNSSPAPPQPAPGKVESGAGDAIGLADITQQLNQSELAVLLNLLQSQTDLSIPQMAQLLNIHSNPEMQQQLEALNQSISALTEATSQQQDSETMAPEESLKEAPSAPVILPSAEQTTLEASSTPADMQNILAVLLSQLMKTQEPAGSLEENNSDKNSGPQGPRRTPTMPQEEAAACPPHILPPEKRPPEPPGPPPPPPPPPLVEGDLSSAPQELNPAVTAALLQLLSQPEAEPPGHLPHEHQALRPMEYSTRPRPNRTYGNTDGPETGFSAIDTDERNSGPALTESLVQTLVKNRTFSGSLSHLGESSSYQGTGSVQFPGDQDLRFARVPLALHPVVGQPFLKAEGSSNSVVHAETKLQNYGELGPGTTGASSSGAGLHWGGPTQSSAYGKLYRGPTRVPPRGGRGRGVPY

[5] = target: T1, Cyclin-dependent kinase 12; test: Inhibition of CDK12 (unknown origin) in presence of ATP by kinase-glo plus luminescent assay
Target sequence in this assay (Q9NYV4 whole entry): as the sequence (Q9NYV4 whole entry, looked up) above

[6] = target: Poly [ADP-ribose] polymerase 1 (Homo sapiens, UniProt P09874); test: Inhibition of PARP1 (unknown origin) incubated for 1 hr by ELISA analysis
[7] = target: Poly [ADP-ribose] polymerase 2 (Homo sapiens, UniProt Q9UGN5); test: Inhibition of PARP2 (unknown origin) incubated for 1 hr by ELISA analysis
[8] = Metabolic stability in human liver microsome assessed as half life in presence of NADPH incubated upto 60 mins by LC-MS/MS analysis; type: ADME; settings: liver microsomes
[9] = Metabolic stability in human liver microsome assessed as intrinsic clearance in presence of NADPH incubated upto 60 mins by LC-MS/MS analysis; type: ADME; settings: liver microsomes, read-out: CLH
[10] = Metabolic stability in BALB/c mouse liver microsome assessed as half life in presence of NADPH incubated upto 60 mins by LC-MS/MS analysis; type: ADME; settings: liver microsomes
[11] = Metabolic stability in BALB/c mouse liver microsome assessed as intrinsic clearance in presence of NADPH incubated upto 60 mins by LC-MS/MS analysis; type: ADME; settings: liver microsomes, read-out: CLH
MDA-MB-231 [12] = test: Antiproliferative activity against human MDA-MB-231 cells assessed as inhibition of cell growth incubated for 48 hrs by MTT assay; type: functional, cell-based; settings: MDA-MB-231, 48 h
MDA-MB-468 [13] = test: Antiproliferative activity against human MDA-MB-468 cells assessed as inhibition of cell growth incubated for 48 hrs by MTT assay; type: functional, cell-based; settings: MDA-MB-468, 48 h
MDA-MB-468 [14] = test: Antiproliferative activity against human MDA-MB-468 cells assessed as inhibition of cell growth incubated for 72 hrs by MTT assay; type: functional, cell-based; settings: MDA-MB-468, 72 h
MDA-MB-436 [15] = test: Antiproliferative activity against human MDA-MB-436 cells assessed as inhibition of cell growth incubated for 48 hrs by MTT assay; type: functional, cell-based; settings: MDA-MB-436, 48 h
MDA-MB-436 [16] = test: Antiproliferative activity against human MDA-MB-436 cells assessed as inhibition of cell growth incubated for 72 hrs by MTT assay; type: functional, cell-based; settings: MDA-MB-436, 72 h
MDA-MB-231 [17] = test: Synergistic antiproliferative activity against human MDA-MB-231 cells in presence of Olaparib incubated for 24 hrs by MTT assay; type: functional, cell-based
MDA-MB-231 [18] = test: cells; settings: Homo sapiens, MDA-MB-231, 72 h

Sequence of Poly [ADP-ribose] polymerase 2 (Q9UGN5 whole entry): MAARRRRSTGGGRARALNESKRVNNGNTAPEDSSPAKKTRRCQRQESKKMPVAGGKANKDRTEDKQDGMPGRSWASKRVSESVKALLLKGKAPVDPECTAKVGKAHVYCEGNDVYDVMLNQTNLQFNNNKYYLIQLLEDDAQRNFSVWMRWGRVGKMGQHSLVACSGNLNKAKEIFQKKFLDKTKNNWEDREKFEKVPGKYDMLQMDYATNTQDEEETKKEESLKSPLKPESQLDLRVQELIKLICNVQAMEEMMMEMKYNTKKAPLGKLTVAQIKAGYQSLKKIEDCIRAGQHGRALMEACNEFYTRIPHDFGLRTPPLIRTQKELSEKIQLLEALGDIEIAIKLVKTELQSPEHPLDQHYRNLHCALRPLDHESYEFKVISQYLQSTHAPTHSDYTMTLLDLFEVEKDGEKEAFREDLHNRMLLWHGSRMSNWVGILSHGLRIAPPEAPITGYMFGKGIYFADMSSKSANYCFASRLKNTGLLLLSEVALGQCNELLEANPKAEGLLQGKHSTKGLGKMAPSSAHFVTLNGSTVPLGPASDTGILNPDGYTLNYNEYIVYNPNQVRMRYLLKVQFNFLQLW
Sequence of Poly [ADP-ribose] polymerase 1 (P09874 whole entry): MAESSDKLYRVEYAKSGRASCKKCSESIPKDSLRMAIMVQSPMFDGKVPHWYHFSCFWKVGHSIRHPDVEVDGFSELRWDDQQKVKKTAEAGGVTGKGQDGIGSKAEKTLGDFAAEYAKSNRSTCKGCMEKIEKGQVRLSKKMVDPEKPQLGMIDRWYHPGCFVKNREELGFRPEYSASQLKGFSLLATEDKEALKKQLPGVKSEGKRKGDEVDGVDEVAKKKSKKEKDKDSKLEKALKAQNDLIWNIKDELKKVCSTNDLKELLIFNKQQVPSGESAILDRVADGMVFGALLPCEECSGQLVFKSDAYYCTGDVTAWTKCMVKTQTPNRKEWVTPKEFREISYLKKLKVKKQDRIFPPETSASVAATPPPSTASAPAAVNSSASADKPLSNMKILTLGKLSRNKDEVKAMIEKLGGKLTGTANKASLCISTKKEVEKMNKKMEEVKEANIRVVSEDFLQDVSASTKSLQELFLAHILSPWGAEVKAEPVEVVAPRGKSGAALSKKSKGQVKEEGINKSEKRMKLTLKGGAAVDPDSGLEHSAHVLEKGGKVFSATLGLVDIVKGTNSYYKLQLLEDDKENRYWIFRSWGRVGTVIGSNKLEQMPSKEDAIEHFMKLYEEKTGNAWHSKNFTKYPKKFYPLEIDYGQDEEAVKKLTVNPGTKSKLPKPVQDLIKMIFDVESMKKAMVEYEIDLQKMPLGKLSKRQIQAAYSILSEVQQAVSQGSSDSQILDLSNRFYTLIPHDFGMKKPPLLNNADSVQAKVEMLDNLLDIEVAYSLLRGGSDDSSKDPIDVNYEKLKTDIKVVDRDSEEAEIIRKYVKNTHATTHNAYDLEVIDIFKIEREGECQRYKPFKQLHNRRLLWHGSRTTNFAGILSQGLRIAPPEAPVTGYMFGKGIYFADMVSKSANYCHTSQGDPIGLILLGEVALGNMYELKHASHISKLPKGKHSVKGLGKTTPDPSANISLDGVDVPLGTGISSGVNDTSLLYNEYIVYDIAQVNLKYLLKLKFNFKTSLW

| SMILES | pIC50 (MDA-MB-231 [1]) | pIC50 (MDA-MB-468 [2]) | pIC50 (MDA-MB-436 [3]; Homo sapiens, MDA-MB-436, 24 h) | inhibition [4] [%] | pIC50 [5] | pIC50 [6] | pIC50 [7] | half-life [8] [min] | CLint scaled [9] [mL/min/kg] | half-life [10] [min] | CLint scaled [11] [mL/min/kg] | pIC50 (MDA-MB-231 [12]) | pIC50 (MDA-MB-468 [13]) | pIC50 (MDA-MB-468 [14]) | pIC50 (MDA-MB-436 [3]; mda-mb-436) | pIC50 (MDA-MB-436 [15]) | pIC50 (MDA-MB-436 [16]) | Activity (MDA-MB-231 [17]) | pIC50 (MDA-MB-231 [18]) |
| --- | --- | --- | --- | --- | --- | --- | --- | --- | --- | --- | --- | --- | --- | --- | --- | --- | --- | --- | --- |
| NC(=O)c1cccc2[nH]c(NC(=O)c3cccc(C(=O)N4CCC(Nc5ncc(F)cn5)CC4)c3)nc12 | < 4.52 | < 4.52 | 4.54 | 24.3 | < 5.00 | 7.15 | 7.19 |  |  |  |  |  |  |  |  |  |  |  |  |
| NC(=O)c1cccc2[nH]c(NC(=O)c3cccc(C(=O)N4CCC(Nc5ncc(C(F)(F)F)cn5)CC4)c3)nc12 | 4.99 | 4.98 | 4.95 | 79.4 | 6.57 | 6.78 | 6.88 |  |  |  |  |  |  |  |  |  |  |  |  |
| O=C(c1ccc(F)cc1)C1CCN(CCn2c(=O)[nH]c3ccccc3c2=O)CC1 [KETANSERIN] |  |  |  |  |  |  |  | 33.6 | 47.7 | 29.4 | 185 |  |  |  |  |  |  |  |  |
| NC(=O)c1cccc2[nH]c(NC(=O)c3cccc(C(=O)N4CCC(Nc5ncc(Br)cn5)CC4)c3)nc12 | 4.99 | 4.91 | 4.95 | 75.4 | 6.46 | 7.43 | 7.49 |  |  |  |  |  |  |  |  |  |  |  |  |
| CN(C)C/C=C/C(=O)Nc1ccc(C(=O)N2CCC[C@@H](Nc3ncc(Cl)c(-c4c[nH]c5ccccc45)n3)C2)cc1 |  |  |  | 98.6 |  |  |  |  |  |  |  | 4.75 | 4.84 | 5.24 | 4.84 and 5.34 | 4.74 | 5.19 | Active | 5.15 |
| NC(=O)c1cccc2[nH]c(NC(=O)c3cccc(C(=O)N4CCC(Nc5ncc(Cl)cn5)CC4)c3)nc12 | 4.81 | 4.85 | 4.90 | 68.3 | 6.26 | 7.37 | 7.46 |  |  |  |  |  |  |  |  |  |  |  |  |
| O=C(c1cc(Cc2n[nH]c(=O)c3ccccc23)ccc1F)N1CCN(C(=O)C2CC2)CC1 [OLAPARIB] | 5.46 | 5.47 | 5.34 | 7 |  |  |  |  |  |  |  | 5.77 | 5.85 | 6.22 |  | 5.82 | 6.15 |  | 6.10 |
